Test results from patent publication US10874743B2, “IRAK degraders and uses thereof” (Kymera Therapeutics, Inc., priority 2017, dated 2020).
Where two headings read alike, the source gives them in different places.

Experiment: Pharmacokinetics in Sprague Dawley rats (plasma and brain concentrations, PK parameters)
Type: in vivo
Conditions: for half-life: read-out: T1/2 (converted)
Experimental: Pharmacokinetics for I-127, I-172 and I-210 were determined in Sprague Dawley rats or CD-1 mice by dosing intravenous (IV), subcutaneous (SC) or per oral (PO) using facility SOPs and sampling plasma at required time points. Species, formulation, route of administration and time points samples are listed below for each compound.
Compounds were extracted from plasma, injected on reverse phase HPLC, eluted with a gradient from 5% to 95% acetonitrile in water and quantified by mass spectrometry with internal standard. Data are expressed in ng compound per mL of plasma.

[1] = Sprague Dawley, rat, plasma, po, 10 mg/kg, Sprague Dawley rat, po 10 mg/kg, plasma, Rat 4, read-out: Concentration Rat 4
[2] = Sprague Dawley, rat, plasma, po, 10 mg/kg, Sprague Dawley rat, po 10 mg/kg, plasma, Rat 5, read-out: Concentration Rat 5
[3] = Sprague Dawley, rat, plasma, po, 10 mg/kg, Sprague Dawley rat, po 10 mg/kg, plasma, Rat 6, read-out: Concentration Rat 6
[4] = Sprague Dawley, rat, plasma, po, 10 mg/kg, Sprague Dawley rat, po 10 mg/kg, plasma, mean of 3 rats, read-out: Concentration Mean
[5] = Sprague-Dawley, rat, plasma, iv, 3 mg/kg, Sprague Dawley rat, iv 3 mg/kg, plasma, Rat 1, read-out: Concentration Rat 1
[6] = Sprague-Dawley, rat, plasma, iv, 3 mg/kg, Sprague Dawley rat, iv 3 mg/kg, plasma, Rat 2, read-out: Concentration Rat 2
[7] = Sprague-Dawley, rat, plasma, iv, 3 mg/kg, Sprague Dawley rat, iv 3 mg/kg, plasma, Rat 3, read-out: Concentration Rat 3
[8] = Sprague-Dawley, rat, plasma, iv, 3 mg/kg, Sprague Dawley rat, iv 3 mg/kg, plasma, mean of 3 rats, read-out: Concentration Mean

AUC(0-t) (Sprague Dawley, rat, plasma, po, 10 mg/kg, Rat (Sprague Dawley) po 10 mg/kg, Mean, read-out: AUClast): 15.2 ng·h/mL
Cmax (Sprague Dawley, rat, plasma, po, 10 mg/kg, Rat (Sprague Dawley) po 10 mg/kg, Mean, read-out: Cmax): 2.91 ng/mL
MRT inf (Sprague Dawley, rat, plasma, po, 10 mg/kg, Rat (Sprague Dawley) po 10 mg/kg, Mean, read-out: MRTInf_obs): 8.9 h
half-life (Sprague Dawley, rat, plasma, po, 10 mg/kg, Rat (Sprague Dawley) po 10 mg/kg, Mean): 4.88 h
MRT inf (Sprague Dawley, rat, plasma, po, 10 mg/kg, Rat (Sprague Dawley) po 10 mg/kg, individual Rat 4-6, read-out: MRTInf_obs): 7.27 h
half-life (Sprague Dawley, rat, plasma, po, 10 mg/kg, Rat (Sprague Dawley) po 10 mg/kg, individual Rat 4-6): 3.72 h
concentration at 0.25 h [1]: 0.716 ng/mL
concentration at 0.25 h [2]: 0.359 ng/mL
concentration at 0.25 h [3]: 0.3 ng/mL
concentration at 0.25 h [4]: 0.458 ng/mL
concentration at 0.5 h [1]: 0.914 ng/mL
concentration at 0.5 h [2]: 0.366 ng/mL
concentration at 0.5 h [3]: 0.377 ng/mL
concentration at 0.5 h [4]: 0.552 ng/mL
concentration at 1 h [1]: 1.39 ng/mL
concentration at 1 h [2]: 0.438 ng/mL
concentration at 1 h [3]: 0.426 ng/mL
concentration at 1 h [4]: 0.75 ng/mL
concentration at 2 h [1]: 1.55 ng/mL
concentration at 2 h [2]: 2.39 ng/mL
concentration at 2 h [3]: 0.737 ng/mL
concentration at 2 h [4]: 1.56 ng/mL
concentration at 4 h [1]: 3.5 ng/mL
concentration at 4 h [2]: 4.02 ng/mL
concentration at 4 h [3]: 1.2 ng/mL
concentration at 4 h [4]: 2.91 ng/mL
concentration at 8 h [1]: 1.66 ng/mL
concentration at 8 h [2]: 2.46 ng/mL
concentration at 8 h [3]: 0.71 ng/mL
concentration at 8 h [4]: 1.61 ng/mL
concentration at 4 h (Sprague-Dawley, rat, brain, iv, 3 mg/kg, Rat (Sprague Dawley) iv 3 mg/kg (IVB), brain, Group 1, Group 2, detected value multiplied by 3, read-out: brain Actual Conc.): 42.6 ng/g
concentration at 4 h (Sprague-Dawley, rat, brain, iv, 3 mg/kg, Rat (Sprague Dawley) iv 3 mg/kg (IVB), brain, Mean, read-out: brain Actual Conc.): 39.9 ng/g
MRT inf (Sprague-Dawley, rat, plasma, iv, 3 mg/kg, Sprague Dawley rat, iv 3 mg/kg, Rat 1, read-out: MRTInf_obs Rat 1): 3.26 h
MRT inf (Sprague-Dawley, rat, plasma, iv, 3 mg/kg, Sprague Dawley rat, iv 3 mg/kg, Rat 2, read-out: MRTInf_obs Rat 2): 3.15 h
MRT inf (Sprague-Dawley, rat, plasma, iv, 3 mg/kg, Sprague Dawley rat, iv 3 mg/kg, Rat 3, read-out: MRTInf_obs Rat 3): 2.92 h
MRT inf (Sprague-Dawley, rat, plasma, iv, 3 mg/kg, Sprague Dawley rat, iv 3 mg/kg, mean of 3 rats, read-out: MRTInf_obs Mean): 3.11 h
concentration at 5 min [5]: 671 ng/mL
concentration at 5 min [6]: 652 ng/mL
concentration at 5 min [7]: 700 ng/mL
concentration at 5 min [8]: 674 ng/mL
concentration at 0.25 h [5]: 396 ng/mL
concentration at 0.25 h [6]: 418 ng/mL
concentration at 0.25 h [7]: 469 ng/mL
concentration at 0.25 h [8]: 428 ng/mL
concentration at 0.5 h [5]: 307 ng/mL
concentration at 0.5 h [6]: 292 ng/mL
concentration at 0.5 h [7]: 312 ng/mL
concentration at 0.5 h [8]: 304 ng/mL
concentration at 1 h [5]: 236 ng/mL
concentration at 1 h [6]: 232 ng/mL
concentration at 1 h [7]: 207 ng/mL
concentration at 1 h [8]: 225 ng/mL
concentration at 2 h [5]: 141 ng/mL
concentration at 2 h [6]: 159 ng/mL
concentration at 2 h [7]: 132 ng/mL
concentration at 2 h [8]: 144 ng/mL
concentration at 4 h [5]: 86 ng/mL
concentration at 4 h [6]: 77.7 ng/mL
concentration at 4 h [7]: 64.5 ng/mL
concentration at 4 h [8]: 76.1 ng/mL
concentration at 8 h [5]: 27.5 ng/mL
concentration at 8 h [6]: 24.8 ng/mL
concentration at 8 h [7]: 20.3 ng/mL
concentration at 8 h [8]: 24.2 ng/mL
concentration at 24 h [5]: 0.454 ng/mL
concentration at 24 h [6]: 0.545 ng/mL
concentration at 24 h [7]: 0.488 ng/mL
concentration at 24 h [8]: 0.496 ng/mL
Tmax (plasma, Rat (Sprague Dawley) po 10 mg/kg, individual Rat 4-6): 4 h
SMILES: O=C1CCC(N2C(=O)c3cccc(NCCOCCOCCNCc4ccc(-n5cc(NC(=O)c6coc(-c7ccnc(NCC8CC8)c7)n6)c(C(F)F)n5)cc4)c3C2=O)C(=O)N1 (stereo not drawn) [I-210, 2-[2-(Cyclopropylmethylamino)-4-pyridyl]-N-[3-(difluoromethyl)-1-[4-[[2-[2-[2-[[2-(2,6-dioxo-3-piperidyl)-1,3-dioxoisoindolin-4-yl]amino]ethoxy]ethoxy]ethylamino]methyl]phenyl]pyrazol-4-yl]oxazole-4-carboxamide]
